Test: Effect of subcutaneous TUDCA on weight gain and food intake in mice on a high-fat diet
Assay type: in vivo, C57BL/6J mice
Settings: 500 mg/kg s.c. twice a week vs placebo
Protocol: To examine the effect of circulating bile acids on body weight gain, C57BL/6J mice on a high-fat diet (HFD) were given subcutaneous injections of tauroursodeoxycholic acid (TUDCA, 500 mg/kg) or placebo for 10 weeks (N=6 per group). TUDCA was prepared daily in 0.15 M NaHCO3 (pH adjusted to 7.4). TUDCA or placebo (0.15 M NaHCO3, pH 7.4) was administered twice a week (Monday/Thursday) as 10 μl solution/g of body weight. Body weight (BW) was measured and recorded immediately before each injection and used to calculate the TUDCA or placebo dose to be administered.
Animals were 10 weeks of age at the start of the experiment (BW=32.6 g±2.6) and were on a […] from weaning that provided 60% of total energy as fat, 20% as carbohydrate, and 20% as protein (D12492 diet; Research Diets, New Brunswick, N.J.). Animals were individually housed on wire floors without bedding and maintained on a 12-hour light-dark cycle (lights on at 0700 hours) in a facility with an ambient temperature of 19-22° C.
Body weight was recorded twice a week, food intake was obtained weekly, and fasting blood glucose was measured every other week.

C[C@H](CCC(=O)NCCS(=O)(=O)O)[C@H]1CC[C@H]2[C@@H]3[C@@H](O)C[C@@H]4C[C@H](O)CC[C@]4(C)[C@H]3CC[C@]12C [TUDCA, tauroursodeoxycholic acid]
percent weight change from baseline (high-fat diet, FIG. 35): trend toward decreased weight
weight gain (high-fat diet, not statistically significant, FIG. 34): trend towards decreased weight gain
weekly food intake (FIG. 36): similar
cumulative food intake (FIG. 37): similar

Reference: patent publication US11154559B2, “Methods and compositions of bile acids” (The General Hospital Corporation, priority 2011, dated 2021)
